Test results from the NIST ThermoML archive (doi:10.1016/j.fluid.2014.09.014).

Assay: refractive index (other wavelength) (dimensionless); xn = mol fraction of the nth substance listed
Conditions: 313.15 K, 101 kPa, Liquid, Standard Abbe refractometry

CC(C)OC(C)C [diisopropyl ether] + CO
refractive index
Conditions | Wavelength=435.8 nm | Wavelength=486.1 nm | Wavelength=546.1 nm | Wavelength=587.6 nm
x2 = 0 | – | 1.36119 | 1.35842 | 1.357
x2 = 0.0423 | – | 1.36111 | 1.35837 | 1.35693
x2 = 0.0424 | – | 1.36115 | 1.35839 | 1.35696
x2 = 0.082 | – | 1.36108 | 1.35823 | 1.35691
x2 = 0.0822 | – | 1.36126 | 1.35853 | 1.3571
x2 = 0.1171 | 1.36445 | 1.36113 | 1.35838 | 1.35696
x2 = 0.1271 | 1.36445 | 1.36113 | 1.35841 | 1.35696
x2 = 0.1827 | 1.36423 | 1.36091 | 1.35818 | 1.35676
x2 = 0.2162 | 1.36405 | 1.36077 | 1.35802 | 1.35661
x2 = 0.251 | 1.36361 | 1.36031 | 1.35759 | 1.35617
x2 = 0.3298 | 1.36371 | 1.36044 | 1.3577 | 1.35627
x2 = 0.3577 | 1.36268 | 1.35958 | 1.35686 | 1.35545
x2 = 0.4497 | 1.36152 | 1.3583 | 1.35561 | 1.35419
x2 = 0.4525 | 1.36193 | 1.35868 | 1.35599 | 1.35459
x2 = 0.522 | 1.35976 | 1.35655 | 1.35386 | 1.35246
x2 = 0.5543 | 1.35887 | 1.35569 | 1.353 | –
x2 = 0.609 | 1.35654 | 1.3534 | 1.35074 | –
x2 = 0.6529 | 1.35496 | 1.35191 | 1.34921 | –
x2 = 0.7504 | 1.35104 | 1.34795 | 1.34538 | –
x2 = 0.804 | 1.34656 | 1.34353 | 1.341 | –
x2 = 0.807 | 1.34668 | 1.34363 | 1.34112 | –
x2 = 0.8727 | 1.34306 | 1.34009 | 1.33757 | –
x2 = 0.9233 | 1.33508 | 1.33213 | 1.3297 | –
x2 = 0.9253 | 1.33674 | 1.3338 | 1.33136 | –
x2 = 0.9527 | 1.33377 | 1.33085 | 1.32843 | –
x2 = 0.9773 | 1.3304 | 1.32749 | 1.32509 | –
x2 = 0.989 | 1.32916 | 1.32628 | 1.32387 | –
x2 = 0.9964 | 1.3282 | 1.32531 | 1.32292 | –
